{
  "source": "patent US7105162B1",
  "about": "“Pharmaceutical composition for immunomodulation based on peptides and adjuvants” (Boehringer Ingelheim International GmbH, priority 1996, dated 2006)",
  "key": {"[1]": {"system": "P388D1 cells", "test": "Permeabilisation of the cell membrane: LDH release (Cytotox 96)", "format": "cell-based, murine", "conditions": "isotonic conditions; FIG. 12", "protocol": "Peptides can be absorbed by APCs by means of specific mechanisms such as macropinocytosis or receptor-mediated endocytosis (Lanzavecchia, 1996). An alternative mechanism may consist in the polyamino acids making the cell membrane permeable and in this way allowing peptides to diffuse from the medium into the cytoplasm. • a) The possible permeabilisation of the cell membrane was tested by measuring the release of the cytoplasmic enzyme lactate dehydrogenase (LDH) after the incubation of P388D1 cells with polyamino acids (polylysine or polyarginine) under isotonic conditions using the commercially available kit (Cytotox 96, Promega, Madison, Wis., USA) in accordance with the manufacturer's instructions. […] When samples treated with polyamino acids alone were compared, no difference in the release of LDH was found compared with treatment with a mixture of polylysine or polyarginine with peptide. […] The fluorescence emitted by FITC is strongly pH-dependent. In an environment with pH conditions such as those found in endosomes, fluorescence is suppressed. Therefore, FITC-labelled peptides which are absorbed by the cells into the endosomes show reduced fluorescence. When monensin is added, the low pH of the endosomes is neutralised, leading to a measurably greater fluorescence of the internalised FITC-labelled peptides."}, "[2]": {"system": "APCs", "test": "Internalisation of FITC-labelled peptide (monensin treatment, 4° C. versus 37° C.), throughflow cytometry", "format": "cell-based", "conditions": "incubated at 37° C., then 50 μM monensin at 4° C.; FIG. 13", "protocol": "Peptides can be absorbed by APCs by means of specific mechanisms such as macropinocytosis or receptor-mediated endocytosis (Lanzavecchia, 1996). An alternative mechanism may consist in the polyamino acids making the cell membrane permeable and in this way allowing peptides to diffuse from the medium into the cytoplasm. • a) The possible permeabilisation of the cell membrane was tested by measuring the release of the cytoplasmic enzyme lactate dehydrogenase (LDH) after the incubation of P388D1 cells with polyamino acids (polylysine or polyarginine) under isotonic conditions using the commercially available kit (Cytotox 96, Promega, Madison, Wis., USA) in accordance with the manufacturer's instructions. […] The fluorescence emitted by FITC is strongly pH-dependent. In an environment with pH conditions such as those found in endosomes, fluorescence is suppressed. Therefore, FITC-labelled peptides which are absorbed by the cells into the endosomes show reduced fluorescence. When monensin is added, the low pH of the endosomes is neutralised, leading to a measurably greater fluorescence of the internalised FITC-labelled peptides.\nThe cells were incubated with a mixture of polyarginine (average molecular weight range 100,000, chain length 490) and fluorescence-labelled peptide at 4° C. or 37° C. […]"}},
  "data": [
    {"sequence": "LFEAIEGFI [FITC-labelled model peptide antigen, MHC Kd-restricted, derived from influenza haemagglutinin]", "values": [
      {"measurement": "LDH released from cells", "setting": "[1]", "result": "no measurable LDH-activity"},
      {"measurement": "change in fluorescence after monensin treatment", "setting": "[2]", "result": "only a slight increase in fluorescence"}
    ]}
  ]
}
